Experimental data reported in US9024017B2, “Octahydro-cyclopentapyrrolyl antagonists of CCR2” (Janssen Pharmaceutica NV, priority 2012, dated 2015).

Target: T1, CCR2 (Homo sapiens, UniProt P41597)
T1 construct: host or cells: THP-1 (human monocytic cell line)
Test: MCP-1 Receptor Binding Assay in THP-1 Cells
Conditions: read-out: MCP1B_v3 IC50
Outline: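 Human monocytic THP-1 cells incubated 2 h at 30 °C with 0.5 nM 125I-MCP-1 and varying concentrations of test compound or unlabelled MCP-1. Cells filter-harvested and counted by scintillation; blank subtracted, compared with vehicle; nonspecific binding with 1 μM cold MCP-1.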

T1 sequence (P41597 whole entry): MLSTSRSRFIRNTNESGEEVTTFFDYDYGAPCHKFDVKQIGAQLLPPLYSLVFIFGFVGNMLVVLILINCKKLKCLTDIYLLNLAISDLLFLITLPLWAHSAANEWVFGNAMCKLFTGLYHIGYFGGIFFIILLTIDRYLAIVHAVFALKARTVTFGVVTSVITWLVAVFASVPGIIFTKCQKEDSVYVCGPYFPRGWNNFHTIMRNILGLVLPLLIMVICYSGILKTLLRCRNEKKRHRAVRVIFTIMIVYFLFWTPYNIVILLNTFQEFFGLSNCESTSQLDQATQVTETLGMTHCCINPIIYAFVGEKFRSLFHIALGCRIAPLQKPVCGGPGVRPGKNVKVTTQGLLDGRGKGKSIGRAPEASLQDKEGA

Row | Compound | IC50
1 | COC1COCCC1N[C@@H]1C[C@H]2CN(C3COC3)C[C@@]2(C(=O)N2CCc3ncc(C(F)(F)F)cc3C2)C1 (relative stereo) [Example 99, ((3aR,5R,6aR)-5-(((3S*,4S*)-3-methoxytetrahydro-2H-pyran-4-yl)amino)-2-(oxetan-3-yl)octahydrocyclopenta[c]pyrrol-3a-yl)(3-(trifluoromethyl)-7,8-dihydro-1,6-naphthyridin-6(5H)-yl)methanone] | 130 nM
2 | COC1COCCC1N[C@@H]1C[C@H]2CN(C(C)=O)C[C@@]2(C(=O)N2CCc3ncc(C(F)(F)F)cc3C2)C1 (relative stereo) [Example 66, 1-((3aR,5R,6aR)-5-(((3S*,4S*)-3-Methoxytetrahydro-2H-pyran-4-yl)amino)-3a-(3-(trifluoromethyl)-5,6,7,8-tetrahydro-1,6-naphthyridine-6-carbonyl)hexahydrocyclopenta-[c]pyrrol-2(1H)-yl)ethanone] | 400 nM
3 | COC1COCCC1N[C@@H]1C[C@H]2CN(C(=O)OCc3ccc(C#N)cc3)C[C@@]2(C(=O)N2CCc3ncc(C(F)(F)F)cc3C2)C1 (relative stereo) [Example 58, (3aR,5R,6aR)-4-Cyanobenzyl 5-(((3S*,4S*)-3-methoxytetrahydro-2H-pyran-4-yl)amino)-3a-(3-(trifluoromethyl)-5,6,7,8-tetrahydro-1,6-naphthyridine-6-carbonyl)hexahydrocyclopenta-[c]pyrrole-2(1H)-carboxylate] | 200 nM
4 | COCCOC(=O)N1C[C@@H]2C[C@@H](NC3CCOCC3OC)C[C@]2(C(=O)N2CCc3ncc(C(F)(F)F)cc3C2)C1 (relative stereo) [Example 48, (3aR,5R,6aR)-2-Methoxyethyl 5-(((3S*,4S*)-3-methoxytetrahydro-2H-pyran-4-yl)amino)-3a-(3-(trifluoromethyl)-5,6,7,8-tetrahydro-1,6-naphthyridine-6-carbonyl)hexahydrocyclopenta[c]pyrrole-2(1H)-carboxylate] | 80 nM
5 | COC(=O)N1C[C@@H]2C[C@@H](NC3CCOCC3OC)C[C@]2(C(=O)N2CCc3ncc(C(F)(F)F)cc3C2)C1 (relative stereo) [Example 34, (3aR,5R,6aR)-Methyl 5-(((3S*,4S*)-3-methoxytetrahydro-2H-pyran-4-yl)amino)-3a-(3-(trifluoromethyl)-5,6,7,8-tetrahydro-1,6-naphthyridine-6-carbonyl)hexahydrocyclopenta[c]pyrrole-2(1H)-carboxylate] | 50 nM
6 | COC1COCCC1N[C@@H]1C[C@H]2CN(CCCc3ccccc3)C[C@@]2(C(=O)N2CCc3ncc(C(F)(F)F)cc3C2)C1 (relative stereo) [Example 103, ((3aR,5R,6aR)-5-(((3S*,4S*)-3-Methoxytetrahydro-2H-pyran-4-yl)amino)-2-(3-phenylpropyl)octahydrocyclopenta[c]pyrrol-3a-yl)(3-(trifluoromethyl)-7,8-dihydro-1,6-naphthyridin-6(5H)-yl)methanone] | 1000 nM
7 | COC1COCCC1N[C@@H]1C[C@H]2CN(C(=O)NC(C)C)C[C@@]2(C(=O)N2CCc3ncc(C(F)(F)F)cc3C2)C1 (relative stereo) [Example 14, (3aR,5R,6aR)-N-Isopropyl-5-(((3S*,4S*)-(3-methoxytetrahydro-2H-pyran-4-yl)amino)-3a-(3-(trifluoromethyl)-5,6,7,8-tetrahydro-1,6-naphthyridine-6-carbonyl)hexahydrocyclopenta[c]pyrrole-2(1H)-carboxamide] | 410 nM
8 | COC1COCCC1N[C@@H]1C[C@H]2CN(S(N)(=O)=O)C[C@@]2(C(=O)N2CCc3ncc(C(F)(F)F)cc3C2)C1 (relative stereo) [Example 32, (3aR,5R,6aR)-5-(((3S*,4S*)-3-Methoxytetrahydro-2H-pyran-4-yl)amino)-3a-(3-(trifluoromethyl)-5,6,7,8-tetrahydro-1,6-naphthyridine-6-carbonyl)hexahydrocyclopenta-[c]pyrrole-2(1H)-sulfonamide] | 130 nM
9 | COC1COCCC1N[C@@H]1C[C@H]2CN(C(=O)Oc3ccccc3)C[C@@]2(C(=O)N2CCc3ncc(C(F)(F)F)cc3C2)C1 (relative stereo) [Example 37, (3aR,5R,6aR)-Phenyl 5-(((3S*,4S*)-3-methoxytetrahydro-2H-pyran-4-yl)amino)-3a-(3-(trifluoromethyl)-5,6,7,8-tetrahydro-1,6-naphthyridine-6-carbonyl)hexahydro-cyclopenta[c]pyrrole-2(1H)-carboxylate] | 150 nM

Further molecules by falling IC50, results first:

Row | IC50 | Compound
10 | 1000 nM | COC1COCCC1N[C@@H]1C[C@H]2CN(CCc3ccccc3)C[C@@]2(C(=O)N2CCc3ncc(C(F)(F)F)cc3C2)C1 (relative stereo) [Example 102, ((3aR,5R,6aR)-5-(((3S*,4S*)-3-Methoxytetrahydro-2H-pyran-4-yl)amino)-2-phenethyloctahydrocyclopenta[c]pyrrol-3a-yl)(3-(trifluoromethyl)-7,8-dihydro-1,6-naphthyridin-6(5H)-yl)methanone]
11 | 610 nM | COC1COCCC1N[C@@H]1C[C@H]2CN(S(C)(=O)=O)C[C@@]2(C(=O)N2CCc3ncc(C(F)(F)F)cc3C2)C1 (relative stereo) [Example 91, ((3aR,5R,6aR)-5-(((3S*,4S*)-3-Methoxytetrahydro-2H-pyran-4-yl)amino)-2-(methylsulfonyl)octahydrocyclopenta[c]pyrrol-3a-yl)(3-(trifluoromethyl)-7,8-dihydro-1,6-naphthyridin-6(5H)-yl)methanone]
12 | 410 nM | COC1COCCC1N[C@@H]1C[C@H]2CN(C(=O)NCC(C)(C)C)C[C@@]2(C(=O)N2CCc3ncc(C(F)(F)F)cc3C2)C1 (relative stereo) [Example 18, (3aR,5R,6aR)-5-(((3S*,4S*)-3-Methoxytetrahydro-2H-pyran-4-yl)amino)-N-neopentyl-3a-(3-(trifluoromethyl)-5,6,7,8-tetrahydro-1,6-naphthyridine-6-carbonyl)hexahydrocyclopenta[c]pyrrole-2(1H)-carboxamide]
13 | 200 nM | COC1COCCC1N[C@@H]1C[C@H]2CN(C(=S)NCc3ccccc3)C[C@@]2(C(=O)N2CCc3ncc(C(F)(F)F)cc3C2)C1 (relative stereo) [Example 26, (3aR,5R,6aR)-N-Benzyl-5-(((3S*,4S*)-3-methoxytetrahydro-2H-pyran-4-yl)amino)-3a-(3-(trifluoromethyl)-5,6,7,8-tetrahydro-1,6-naphthyridine-6-carbonyl)hexahydrocyclopenta-[c]pyrrole-2(1H)-carbothioamide]
14 | 160 nM | COC1COCCC1N[C@@H]1C[C@H]2CN(C(=O)CN(C)C)C[C@@]2(C(=O)N2CCc3ncc(C(F)(F)F)cc3C2)C1 (relative stereo) [Example 76, 2-(Dimethylamino)-1-((3aR,5R,6aR)-5-(((3S*,4S*)-3-methoxytetrahydro-2H-pyran-4-yl)amino)-3a-(3-(trifluoromethyl)-5,6,7,8-tetrahydro-1,6-naphthyridine-6-carbonyl)hexahydrocyclopenta[c]pyrrol-2(1H)-yl)ethanone]
15 | 150 nM | COC1COCCC1N[C@@H]1C[C@H]2CN(c3nccs3)C[C@@]2(C(=O)N2CCc3ncc(C(F)(F)F)cc3C2)C1 (relative stereo) [Example 110, ((3aR,5R,6aR)-5-(((3S*,4S*)-3-Methoxytetrahydro-2H-pyran-4-yl)amino)-2-(thiazol-2-yl)octahydrocyclopenta[c]pyrrol-3a-yl)(3-(trifluoromethyl)-7,8-dihydro-1,6-naphthyridin-6(5H)-yl)methanone]
16 | 120 nM | COC1COCCC1N[C@@H]1C[C@H]2CN(C3CCOCC3OC)C[C@@]2(C(=O)N2CCc3ccc(C(F)(F)F)cc3C2)C1 (relative stereo) [Example 105, ((3aR,5R,6aR)-2-((3S*,4S*)-3-Methoxytetrahydro-2H-pyran-4-yl)-5-(((3S*,4S*)-3-methoxytetrahydro-2H-pyran-4-yl)amino)octahydrocyclopenta[c]pyrrol-3a-yl)(7-(trifluoromethyl)-3,4-dihydroisoquinolin-2(1H)-yl)methanone]
17 | 90 nM | COC1COCCC1N[C@@H]1C[C@H]2CN(C(N)=S)C[C@@]2(C(=O)N2CCc3ncc(C(F)(F)F)cc3C2)C1 (relative stereo) [Example 25, (3aR,5R,6aR)-5-(((3S*,4S*)-3-Methoxytetrahydro-2H-pyran-4-yl)amino)-3a-(3-(trifluoromethyl)-5,6,7,8-tetrahydro-1,6-naphthyridine-6-carbonyl)hexahydrocyclopenta-[c]pyrrole-2(1H)-carbothioamide]
18 | 50 nM | COC1COCCC1N[C@@H]1C[C@H]2CN(C(=O)OCCNC(C)=O)C[C@@]2(C(=O)N2CCc3ncc(C(F)(F)F)cc3C2)C1 (relative stereo) [Example 63, (3aR,5R,6aR)-2-Acetamidoethyl 5-(((3S*,4S*)-3-methoxytetrahydro-2H-pyran-4-yl)amino)-3a-(3-(trifluoromethyl)-5,6,7,8-tetrahydro-1,6-naphthyridine-6-carbonyl)hexahydrocyclopenta[c]pyrrole-2(1H)-carboxylate]
19 | 40 nM | COC1COCCC1N[C@@H]1C[C@H]2CN(C(=O)/C=C/CN3CCCC3)C[C@@]2(C(=O)N2CCc3ncc(C(F)(F)F)cc3C2)C1 (relative stereo) [Example 88, (E)-1-((3aR,5R,6aR)-5-(((3S*,4S*)-3-methoxytetrahydro-2H-pyran-4-yl)amino)-3a-(3-(trifluoromethyl)-5,6,7,8-tetrahydro-1,6-naphthyridine-6-carbonyl)hexahydro-cyclopenta[c]pyrrol-2(1H)-yl)-4-(pyrrolidin-1-yl)but-2-en-1-one]
20 | 10 nM | COC1COCCC1N[C@@H]1C[C@H]2CN(C(N)=O)C[C@@]2(C(=O)N2CCc3ccc(C(F)(F)F)cc3C2)C1 (relative stereo) [Example 6, (3aR,5R,6aR)-5-(((3S*,4S*)-3-Methoxytetrahydro-2H-pyran-4-yl)amino)-3a-(7-(trifluoromethyl)-1,2,3,4-tetrahydroisoquinoline-2-carbonyl)hexahydrocyclopenta-[c]pyrrole-2(1H)-carboxamide]
